Results: US9440941B2, “Substituted chroman-6-yloxy-cycloalkanes and their use as pharmaceuticals” (SANOFI, priority 2013, dated 2016)
Structures can show the parent of a compound that is named as a salt.

target: T1, human NCX1 (Homo sapiens, UniProt P32418); test: Inhibition of Ca2+ influx into cells (NCX1 reverse mode), FLIPR Fluo-4 assay; type: cell-based; details: inhibition of NCX1 in reverse mode (Ca2+ influx into cells); read-out: NCX1rv IC50
T1 construct: expressed in transfected cells
From the text: The sodium/calcium exchanger NCX1 can transport calcium ions and sodium ions through the cell membrane. The transport is an exchange of Ca^2+ and Na^+ in two directions depending on membrane potential and ion gradients. At the first direction, named “forward mode” or “calcium export mode”, Ca^2+ is transported out of the cell and Na^+ is transported into the cell. At the other direction, named “reverse mode” or “calcium import mode”, the transport directions are vice versa. The effect of the compounds of the invention on NCX1 was determined in CHO cells stably expressing human NCX1 (gene symbol SLC8A1; cf. WO 2009/115238). The assay is based on the monitoring of intracellular Ca^2+ concentrations using a calcium-sensitive fluorescence dye which is detected by means of a FLIPR device (Fluorimetric Imaging Plate Reader, Molecular Devices).
Assay Technology—Reverse Mode
The assay is based on the monitoring of intracellular Ca^2+ concentrations using the calcium-sensitive dye Fluo-4. CHO cells expressing NCX1 were loaded with the dye by means of the acetoxymethyl ester Fluo-4 AM (Invitrogen, F14202), which is cleaved intracellularly by esterase activity to yield the charged species of free Fluo-4. After an preincubation period with the test compound, Gramicidine (Sigma, G5002) was added. Gramicidine is an ionophor for Na^+ ions mediating an increase of intracellular Na^+ ions. Consequently, intracellular Na^+ ions are exchanged against extracellular Ca^2+ ions (Ca^2+ influx, reverse mode). The intracellular elevation of Ca^2+ ions was detected by measuring the fluorescence of Fluo-4 at a wavelength of 520 nm by a FLIPR device.
Briefly, for the reverse mode transport assay 18000 cells per well were seeded into a 96 well microplate (Corning COSTAR 3904) and incubated overnight in culture medium (1× Nut Mix F12 (Ham) (Gibco, 21765-029); 10% (v/v) fetal calf serum (PAA Gold, A15-649); 450 μg/ml Geneticin (Gibco, 10131-027)). A total volume of 100 μl medium per well was used. For the preparation of the FLIPR assay, the culture medium was removed from the plates and 100 μl of dye solution (2 μM Fluo-4 AM; 0.02% (v/v) Pluronic F-127 (20%, Invitrogen, P3000MP); 0.1% (v/v) bovine albumin solution (30% (v/v), Sigma, A9205) in assay buffer (133.8 mM NaCl (Sigma, S5886); 4.7 mM KCl (Sigma, P3911); 1.25 mM MgCl2 (Merck, 1.05833.0250); 3.5 mM CaCl2 (Merck, 1.02083.0250); 5 mM glucose (Sigma, G7021); 10 mM Hepes (Sigma, H4034); 0.01% (v/v) Pluronic F-127 (5%, Sigma, P2443); 2.5 mM Probenecid (Maybridge, SB00915EB); pH 7.4)) were added into each well. The plates were incubated in the dark at room temperature for 80 min. After the incubation period, the dye solution was removed and the wells were washed with 100 μl of assay buffer. Then 80 μl of a solution of the test compound in assay buffer in different concentrations were added into the wells. The plates were incubated at 16° C. for 45 min. Meanwhile a 60 μM solution of Gramicidine in assay buffer (4° C.) was prepared and stored in the wells of a 96 well microplate (96 well microplate, polypropylene, U-shape (Greiner Bio-One, 650201)) at 4° C. until measurement was started. The fluorescence monitoring was performed at 240 measuring points with measurement intervals of 2 sec. After the fifth measuring point, 40 μl of the Gramicidine solution were added to each well of the assay plates to give a final Gramicidine concentration of 20 μM. For the determination of the IC50 values the minimal fluorescence value was subtracted from the maximal fluorescence value for all measuring points. The calculation of the IC50 values via the percentage inhibitions of Ca^2+ influx into cells (reverse mode) effected by the test compound was performed in Biost@t Speed 2.0.

Row | Compound | IC50
1 | 1,1-Dioxo-N-[4-(2-phenylchroman-6-yloxy)cyclohexyl]-tetrahydrothiophen-3-ylamine [compound 147] | 700 nM
2 | 4-(2-Phenylchroman-6-yloxy)-N-(2-piperidin-1-ylethyl)cyclohexylamine [compound 145] | 2100 nM
3 | 4-(2-Phenylchroman-6-yloxy)-N-(2-pyrrolidin-1-ylethyl)cyclohexylamine [compound 137] | 1300 nM
4 | 4-(2-Phenylchroman-6-yloxy)-N-(2-thiomorpholin-4-ylethyl)cyclohexylamine [compound 139] | 1000 nM
5 | NC[C@H]1CC[C@@H](Oc2ccc3c(c2)CCC(c2ccccc2)O3)CC1 (relative stereo) [compound 1, hydrochloride] | 500 nM
6 | N[C@H]1CC[C@@H](Oc2ccc3c(c2)CCC(c2ccccc2)O3)CC1 (relative stereo) [compound 2, hydrochloride] | 1300 nM
7 | CS(=O)(=O)NC[C@H]1CC[C@@H](Oc2ccc3c(c2)CCC(c2ccccc2)O3)CC1 (relative stereo) [compound 3] | 700 nM
8 | CC(=O)NC[C@H]1CC[C@@H](Oc2ccc3c(c2)CCC(c2ccccc2)O3)CC1 (relative stereo) [compound 4] | 400 nM
9 | CC(=O)N[C@H]1CC[C@@H](Oc2ccc3c(c2)CCC(c2ccccc2)O3)CC1 (relative stereo) [compound 6] | 500 nM
10 | O=C(CCn1cncn1)N[C@H]1CC[C@H](Oc2ccc3c(c2)CCC(c2ccccc2)O3)CC1 (relative stereo) [compound 38] | 400 nM
11 | Cc1nc(CC(=O)N[C@H]2CC[C@H](Oc3ccc4c(c3)CCC(c3ccccc3)O4)CC2)c(C)s1 (relative stereo) [compound 40] | 300 nM
12 | Cc1cc(C)n(CC(=O)N[C@H]2CC[C@H](Oc3ccc4c(c3)CCC(c3ccccc3)O4)CC2)n1 (relative stereo) [compound 41] | 300 nM
13 | CCC(C)(O)C(=O)N[C@H]1CC[C@H](Oc2ccc3c(c2)CCC(c2ccccc2)O3)CC1 (relative stereo) [compound 44] | 300 nM
14 | c1ccc(C2CCc3cc(O[C@H]4CC[C@H](NCc5cncs5)CC4)ccc3O2)cc1 (relative stereo) [compound 47] | 400 nM
15 | c1ccc(C2CCc3cc(O[C@H]4CC[C@H](NCc5ccsc5)CC4)ccc3O2)cc1 (relative stereo) [compound 50] | 600 nM
16 | c1ccc(C2CCc3cc(O[C@H]4CC[C@H](NCc5cccs5)CC4)ccc3O2)cc1 (relative stereo) [compound 51] | 600 nM
17 | FC(F)(F)CCN[C@H]1CC[C@H](Oc2ccc3c(c2)CCC(c2ccccc2)O3)CC1 (relative stereo) [compound 54] | 600 nM
18 | c1ccc(C2CCc3cc(O[C@H]4CC[C@H](NCc5nccs5)CC4)ccc3O2)cc1 (relative stereo) [compound 55] | 400 nM
19 | CC(C)(C)CN[C@H]1CC[C@H](Oc2ccc3c(c2)CCC(c2ccccc2)O3)CC1 (relative stereo) [compound 58, N-(2,2-Dimethylpropyl)-[trans-4-(2-phenylchroman-6-yloxy)]-cyclohexylamine] | 600 nM
20 | Cc1nn(C)c(C)c1CN[C@H]1CC[C@H](Oc2ccc3c(c2)CCC(c2ccccc2)O3)CC1 (relative stereo) [compound 60] | 400 nM
21 | c1ccc(C2CCc3cc(O[C@H]4CC[C@H](NCC5CCOC5)CC4)ccc3O2)cc1 (relative stereo) [compound 61] | 300 nM
22 | C[C@H]1CC[C@H](NC2CCC(Oc3ccc4c(c3)CCC(c3ccccc3)O4)CC2)CC1 (relative stereo) [compound 146] | 2000 nM
23 | Cc1ccccc1C1CCc2cc(O[C@H]3CC[C@H](NC(=O)CCn4cccn4)CC3)ccc2O1 (relative stereo) [compound 153] | 1200 nM
24 | Cc1ccccc1C1CCc2cc(O[C@H]3CC[C@H](NCC4CCOC4)CC3)ccc2O1 (relative stereo) [compound 154, (Tetrahydrofuran-3-ylmethyl)-[trans-4-(2-o-tolyl-chroman-6-yloxy)-cyclohexyl]-amine] | 2200 nM
25 | Cc1ccccc1C1CCc2cc(O[C@H]3CC[C@H](N(CC4CCOC4)CC4CCOC4)CC3)ccc2O1 (relative stereo) [compound 155, Bis-(tetrahydrofuran-3-ylmethyl)-[trans-4-(2-o-tolyl-chroman-6-yloxy)-cyclohexyl]-amine] | 5300 nM

Further lines, results first:

Row | IC50 | Compound
26 | 300 nM | CC(=O)N[C@H]1CC[C@H](Oc2ccc3c(c2)CCC(c2ccccc2)O3)CC1 (relative stereo) [compound 7]
27 | 100 nM | CSCC(=O)N[C@H]1CC[C@H](Oc2ccc3c(c2)CCC(c2ccccc2)O3)CC1 (relative stereo) [compound 19]
28 | 200 nM | O=C(N[C@H]1CC[C@H](Oc2ccc3c(c2)CCC(c2ccccc2)O3)CC1)C1CCC1 (relative stereo) [compound 20]
29 | 200 nM | CS(=O)(=O)CCC(=O)N[C@H]1CC[C@H](Oc2ccc3c(c2)CCC(c2ccccc2)O3)CC1 (relative stereo) [compound 21]
30 | 300 nM | O=C(Cn1cccn1)N[C@H]1CC[C@H](Oc2ccc3c(c2)CCC(c2ccccc2)O3)CC1 (relative stereo) [compound 24]
31 | 200 nM | Cc1cc(CC(=O)N[C@H]2CC[C@H](Oc3ccc4c(c3)CCC(c3ccccc3)O4)CC2)on1 (relative stereo) [compound 25]
32 | 100 nM | O=C(N[C@H]1CC[C@H](Oc2ccc3c(c2)CCC(c2ccccc2)O3)CC1)C1CC1 (relative stereo) [compound 26]
33 | 200 nM | O=C(CC1CC1)N[C@H]1CC[C@H](Oc2ccc3c(c2)CCC(c2ccccc2)O3)CC1 (relative stereo) [compound 27]
34 | 200 nM | Cc1ccn(CC(=O)N[C@H]2CC[C@H](Oc3ccc4c(c3)CCC(c3ccccc3)O4)CC2)n1 (relative stereo) [compound 28]
35 | 300 nM | Cc1nc(C(=O)N[C@H]2CC[C@H](Oc3ccc4c(c3)CCC(c3ccccc3)O4)CC2)cs1 (relative stereo) [compound 29]
36 | 300 nM | COCCC(=O)N[C@H]1CC[C@H](Oc2ccc3c(c2)CCC(c2ccccc2)O3)CC1 (relative stereo) [compound 30]
37 | 100 nM | O=C(N[C@H]1CC[C@H](Oc2ccc3c(c2)CCC(c2ccccc2)O3)CC1)c1ccncc1F (relative stereo) [compound 31]
38 | 100 nM | O=C(N[C@H]1CC[C@H](Oc2ccc3c(c2)CCC(c2ccccc2)O3)CC1)C1CC1(F)F (relative stereo) [compound 32]
39 | 100 nM | O=C(Cn1cncn1)N[C@H]1CC[C@H](Oc2ccc3c(c2)CCC(c2ccccc2)O3)CC1 (relative stereo) [compound 35]
40 | 300 nM | Cc1nn(C)c(C)c1CCC(=O)N[C@H]1CC[C@H](Oc2ccc3c(c2)CCC(c2ccccc2)O3)CC1 (relative stereo) [compound 36]
41 | 300 nM | Cc1n[nH]c(C)c1CCC(=O)N[C@H]1CC[C@H](Oc2ccc3c(c2)CCC(c2ccccc2)O3)CC1 (relative stereo) [compound 37]
42 | 300 nM | O=C(CCn1cccn1)N[C@H]1CC[C@H](Oc2ccc3c(c2)CCC(c2ccccc2)O3)CC1 (relative stereo) [compound 39]
43 | 200 nM | Cc1ccnn1CCC(=O)N[C@H]1CC[C@H](Oc2ccc3c(c2)CCC(c2ccccc2)O3)CC1 (relative stereo) [compound 42]
44 | 100 nM | Cc1n[nH]c(C)c1CC(=O)N[C@H]1CC[C@H](Oc2ccc3c(c2)CCC(c2ccccc2)O3)CC1 (relative stereo) [compound 43]
